Laboratory results as given in patent US5646316A, “Bile acid inhibitors of metalloproteinase enzymes” (OsteoArthritis Sciences, Inc., priority 1995, dated 1997).

These compounds were tested against stromelysin (Homo sapiens, UniProt P08254) (assay: Assay of Stromelysin Inhibition Activity (fluorogenic substrate hydrolysis)). Settings: 60 minutes incubation.
Format: biochemical
Experimental: Stromelysin was first activated by trypsin. This was done by preparing a reaction mixture in B-150 (B-150 consists of 150 mM NaCl, 20 mM Tris at pH 7.8 and 0.02% sodium azide) containing a final concentration of 4 μg/mL trypsin, 1.48 μg/mL of stromelysin, and 3.15 mM CaCl2. The reaction was incubated for 30 minutes at 37° C. and then quenched by adding soybean trypsin inhibitor to a final concentration of 43.6 μg/mL. ZnCl2 was added to the reaction mixture for a total concentration of 0.24 μM.
Following preparation of the solution of activated stromelysin, assay solutions were prepared for each inhibitor being tested. A control was also prepared. First, […] of activated stromelysin (about 45 μL from the solution of activated stromelysin) were aliquotted per assay tube. A 2.5 mM solution in 100% dimethyl sulfoxide (DMSO) was prepared for each inhibitor being tested and 1 μL from each inhibitor solution was added to one of the assay tubes. In addition, 1 μL of 100% DMSO was added to the control assay tube. All assay tubes were then pre-incubated for 5 minutes.
5 μL of a previously prepared 50 μM solution of substrate in 15% DMSO were added to each assay tube. The substrate was a methoxycumarin developed by Knight et al. FEBS Lett. 296:263-66 (1992). The tubes were then incubated for 60 minutes, at which time the reaction was stopped with the addition of 750 μL of 0.1M NaAc pH 4.0 buffer.
Substrate hydrolysis was assessed by fluorescence using a slit width of 10:10, excitation at 328 nm and emission at 393 nm. The results of these assays are listed in Table I as percent inhibition at 10 μM of the bile acid provided compound tested or as the IC50.

Chain of stromelysin (P08254 100-477): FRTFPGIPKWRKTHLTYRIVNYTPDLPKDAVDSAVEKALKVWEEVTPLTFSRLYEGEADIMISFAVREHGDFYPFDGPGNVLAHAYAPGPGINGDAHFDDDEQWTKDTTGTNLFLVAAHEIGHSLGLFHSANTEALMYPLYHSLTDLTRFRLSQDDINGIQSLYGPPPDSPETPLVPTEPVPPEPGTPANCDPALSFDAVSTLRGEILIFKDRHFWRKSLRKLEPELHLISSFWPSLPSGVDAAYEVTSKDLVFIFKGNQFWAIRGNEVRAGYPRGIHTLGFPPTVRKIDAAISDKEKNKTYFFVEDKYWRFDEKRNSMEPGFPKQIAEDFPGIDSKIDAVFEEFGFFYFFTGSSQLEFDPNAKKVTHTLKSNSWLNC

Structure (SMILES)	IC50 [µM]
CCOC(=O)[C@H](CS)NC(=O)[C@H](Cc1ccccc1)NC(=O)CC[C@@H](C)[C@H]1CC[C@H]2[C@@H]3CC[C@@H]4C[C@H](O)CC[C@]4(C)[C@H]3CC[C@]12C [Compound 19, Lithocholyl-(L)-Phenylalanyl-(L)-Cysteine Ethyl Ester]	2
CC(C)C[C@H](NC(=O)CC[C@@H](C)[C@H]1CC[C@H]2[C@@H]3[C@H](O)C[C@@H]4C[C@H](O)CC[C@]4(C)[C@H]3CC[C@]12C)C(=O)NO [Compound 10, Chenodeoxycholyl-(L)-Leucine Hydroxamic Acid]	5
CC(C)C[C@H](NC(=O)CC[C@@H](C)[C@H]1CC[C@H]2[C@@H]3CC[C@@H]4C[C@H](O)CC[C@]4(C)[C@H]3CC[C@]12C)C(=O)NO [Compound 9, Lithocholyl-(L)-Leucine Hydroxamic Acid]	1
C[C@H](CCC(=O)O)[C@H]1CC[C@H]2[C@@H]3CC[C@@H]4C[C@H](O)CC[C@]4(C)[C@H]3CC[C@]12C [Compound 1, Lithocholic acid, reference compound]	38

Same assay, conditions: at 10 μM of compound; read-out: percent inhibition of stromelysin

Structure (SMILES)	inhibition at 10 µM [%]
C[C@H](CCC(=O)NOCc1ccccc1)[C@H]1CC[C@H]2[C@@H]3[C@H](O)C[C@@H]4C[C@H](O)CC[C@]4(C)[C@H]3CC[C@]12C [Compound 12, Chenodeoxycholyl-O-Benzylhyroxamate]	5
C[C@H](CCC(=O)N[C@@H](Cc1ccccc1)C(=O)NO)[C@H]1CC[C@H]2[C@@H]3[C@H](O)C[C@@H]4C[C@H](O)CC[C@]4(C)[C@H]3CC[C@]12C [Compound 16, Chenodeoxycholyl-(L)-Phenylalanine Hydroxamic Acid]	80
C[C@H](CCC(=O)N[C@@H](Cc1ccccc1)C(=O)NC1CCSC1=O)[C@H]1CC[C@H]2[C@@H]3CC[C@@H]4C[C@H](O)CC[C@]4(C)[C@H]3CC[C@]12C (stereo partly shown) [Compound 20, Lithocholyl-Phenylalanylhomocysteine Thiolactone]	57
C[C@H](CCC(=O)NO)[C@H]1CC[C@H]2[C@@H]3CC[C@@H]4C[C@H](O)CC[C@]4(C)[C@H]3CC[C@]12C [Compound 13, Lithocholylhydroxamic Acid]	56
C[C@H](CCC(=O)N[C@@H](Cc1ccccc1)C(=O)NO)[C@H]1CC[C@H]2[C@@H]3CC[C@@H]4C[C@H](O)CC[C@]4(C)[C@H]3CC[C@]12C [Compound 15, Lithocholyl-(L)-Phenylalanine Hydroxamic Acid]	85

Same assay, conditions: read-out: percent inhibition of stromelysin

Structure (SMILES)	inhibition at 10 µM [%]
C[C@H](CCC(=O)NCCC[N+](C)(C)CCCS(=O)(=O)[O-])[C@H]1CC[C@H]2[C@@H]3[C@H](O)C[C@@H]4C[C@H](O)CC[C@]4(C)[C@H]3C[C@H](O)[C@]12C [Compound 8, 3-[(3-cholamidopropyl)dimethylammonio)-1-propanesulfonate, reference compound]	26
